From patent US11028090B2 (Dong Wha Pharm. Co., Ltd., priority 2017, dated 2021)
Read-outs that look alike come from different tables or passages of the source.

Legend:
[1] = tested on: acute myelogenous leukemia cells (MV-4-11 cells); experiment: Cytotoxicity to acute myelogenous leukemia cells (MV-4-11 cells), CCK-8; conditions: Homo sapiens, MV4-11, 72 h
[2] = target: BRD4 (BD1+BD2) bromodomain (Homo sapiens (Human), UniProt O60885); experiment: BRD4 binding inhibition (AlphaScreen, GST-BRD4 vs tetraacetylated histone H4 peptide)
Method in brief: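 GST-BRD4 (BD1+BD2) and biotinylated tetraacetyl-histone H4 peptide, each at 100 nM in HEPES pH 7.4 buffer with BSA and DTT, were combined with compound. Glutathione acceptor and streptavidin donor beads were added, then incubated 30 min at room temperature in the dark. Read-out was AlphaScreen signal.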

[3] = read-out: MV-4-11 Cytotoxicity IC50
[4] = GST-BRD4 (BD1+BD2) / biotinylated acetyl-histone H4 (Lys5,8,12,16) peptide, read-out: IC50, BRD4 binding inhibition
[5] = GST-BRD4 (BD1+BD2) vs biotinylated acetyl-histone H4 peptide, AlphaScreen, read-out: BRD4 IC50

SMILES | IC50 [2, 4] [nM] | IC50 [2, 5] [nM] | IC50 [1, 3] [nM] | IC50 ([1]; read-out: IC50, cytotoxicity against acute myelogenous leukemia cells) [nM]
Cc1nnc2c(NCCCCNC(=O)CC(C)C)nc3cc(OC(=O)N4CCOCC4)ccc3n12 [Example 351] | – | – | 290 | –
COc1cc2nc(NCCCCNC(=O)CC(C)C)c3nnc(C)n3c2cc1NC(=O)NC(C)C [Example 561, N-{4-[8-(3-isopropyl-ureido)-7-methoxy-1-methyl-[1,2,4]triazolo[4,3-a]quinoxaline-4-ylamino]-butyl}-3-methyl-butyramide] | – | – | 60 | ≤ 200
COc1ccc2c(c1)nc(NCCCCC(=O)NC(C)(C)C)c1nnc(C)n12 [Example 653, 5-(7-methoxy-1-methyl-[1,2,4]triazolo[4,3-a]quinoxaline-4-ylamino)-pentanoic acid-tert-butylamide] | ≤ 50 | 16 | – | –
Cc1nnc2c(NCCCCOC(=O)c3ccccc3)nc3ccccc3n12 [Example 634, benzoic acid-4-(1-methyl-[1,2,4]triazolo[4,3-a]quinoxaline-4-ylamino)-butylester] | – | 91 | – | –
CC(=O)Nc1ccc2nc(NCCCCNC(=O)C(C)(C)C)c3nnc(C)n3c2c1 [Example 547, N-[4-(8-acetamino-1-methyl-[1,2,4]triazolo[4,3-a]quinoxaline-4-ylamino)-butyl]-2,2-dimethyl-propionamide] | ≤ 50 | – | – | –
COCCOc1ccc2c(c1)nc(NCCCCNC(=O)C1CC1)c1nnc(C)n12 [Example 377, cyclopropane carboxylic acid-{4-[7-(2-methoxy-ethoxy)-1-methyl-[1,2,4]triazolo[4,3-a]quinoxaline-4-ylamino]-butyl}-amide] | ≤ 50 | 39 | – | –
COc1cc(C(F)(F)F)cc2c1nc(NCCCCNC(=O)CC(C)C)c1nnc(C)n12 [Example 145, N-[4-(6-methoxy-1-methyl-8-trifluoromethyl-[1,2,4]triazolo[4,3-a]quinoxaline-4-ylamino)-butyl]-3-methyl-butyramide] | ≤ 50 | 47 | – | –
COC(=O)c1ccc2nc(NCCCCNC(=O)OC(C)(C)C)c3nnc(C)n3c2c1 [Example 530, 4-(4-tert-butoxycarbonylamino-butylamino)-1-methyl-[1,2,4]triazolo[4,3-a]quinoxaline-8-carboxylic acid methylester] | ≤ 50 | 34 | – | –
COc1ccc2c(c1)nc(NCCCCNC(=O)[C@H](C(C)C)N1CCC(CCO)CC1)c1nnc(C)n12 [Example 317, 2-(S)-[4-(2-hydroxy-ethyl)-piperidine-1-yl]-N-[4-(7-methoxy-1-methyl-[1,2,4]triazolo[4,3-a]quinoxaline-4-ylamino)-butyl]-3-methyl-butyramide] | ≤ 50 | 31 | – | –
COc1ccc2c(c1)nc(NCCCCNC(=O)[C@@H](N)Cc1ccc(O)cc1)c1nnc(C)n12 [Example 326, 2-(S)-amino-3-(4-hydroxy-phenyl)-N-[4-(7-methoxy-1-methyl-[1,2,4]triazolo[4,3-a]quinoxaline-4-ylamino)-butyl]-propionamide] | – | 64 | – | –
Cc1nnc2c(NCCCCNC(=O)[C@H](O)C(C)C)nc3ccccc3n12 [Example 9, 2-(R)-hydroxy-N-[4-(1-methyl-[1,2,4]triazolo[4,3-a]quinoxaline-4-ylamino)-butyl]-3-methyl-butyramide] | ≤ 50 | 40 | – | –
COCCOc1cc2c(cc1OC)nc(NCCCCNC(=O)CC(C)C)c1nnc(C)n12 [Example 485, N-{4-[7-methoxy-8-(2-methoxy-ethoxy)-1-methyl-[1,2,4]triazolo[4,3-a]quinoxaline-4-ylamino]-butyl}-3-methyl-butyramide] | – | 59 | – | –
COc1cc(C(F)(F)F)cc2c1nc(NCCCCNC(=O)OC(C)C)c1nnc(C)n12 [Example 144, [4-(6-methoxy-1-methyl-8-trifluoromethyl-[1,2,4]triazolo[4,3-a]quinoxaline-4-ylamino)-butyl]-carbamic acid isopropylester] | ≤ 50 | 38 | – | –
COc1cc2nc(NCCCCNC(=O)COC(C)=O)c3nnc(C)n3c2cc1OC [Example 87] | ≤ 50 | 27 | – | –
COc1ccc2c(c1)nc(NCCCCNC(=O)C(C)(C)O)c1nnc(C)n12 [Example 297, 2-hydroxy-N-[4-(7-methoxy-1-methyl-[1,2,4]triazolo[4,3-a]quinoxaline-4-ylamino)-butyl]-2-methyl-propionamide] | ≤ 50 | 27 | – | –
Cc1noc(C)c1-c1ccc2nc(NCCCCN)c3nnc(C)n3c2c1 [Example 579, N^1-[8-(3,5-dimethyl-isoxazol-4-yl)-1-methyl-[1,2,4]triazolo[4,3-a]quinoxaline-4-yl]-butane-1,4-diamine ditrifluoroacetic acid] | ≤ 10 | 5 | – | –
Cc1nnc2c(NCCCCNC(=O)c3ccccc3)nc3ccc(C(=O)NCCN(C)C)cc3n12 [Example 537, 4-(4-benzoylamino)-1-methyl-[1,2,4]triazolo[4,3-a]quinoxaline-8-carboxylic acid-(2-dimethylamino-ethyl)-amide] | – | 93 | – | –
COc1ccc2c(c1)nc(NCCCCNC(=O)[C@@H](NC(=O)[C@H](C)O)C(C)C)c1nnc(C)n12 [Example 324, 2-(S)-(2-(S)-hydroxy-propionylamino)-N-[4-(7-methoxy-1-methyl-[1,2,4]triazolo[4,3-a]quinoxaline-4-ylamino)-butyl]-3-methyl-butyramide] | ≤ 10 | 7 | – | –
COc1ccc(C(=O)c2ccc3c(c2)nc(NCCCCNC(=O)OC(C)(C)C)c2nnc(C)n23)cc1 [Example 262, {4-[7-(4-methoxy-benzoyl)-1-methyl-[1,2,4]triazolo[4,3-a]quinoxaline-4-ylamino]-butyl}-carbamic acid-tert-butylester] | – | 72 | – | –
Cc1nnc2c(NCCCCNC(=O)c3ccccc3)nc3ccc(F)cc3n12 [Example 51, N-[4-(8-fluoro-1-methyl-[1,2,4]triazolo[4,3-a]quinoxaline-4-ylamino)-butyl]-benzamide] | ≤ 50 | – | – | –
COCCOc1ccc2c(c1)nc(NCCCCNC(=O)c1cccnc1)c1nnc(C)n12 [Example 417, N-{4-[7-(2-methoxy-ethoxy)-1-methyl-[1,2,4]triazolo[4,3-a]quinoxaline-4-ylamino]-butyl}-nicotinamide] | – | 60 | – | –

Further lines, with some results ahead:

IC50 [2, 4] [nM] | IC50 [2, 5] [nM] | SMILES | IC50 [1, 3] [nM] | IC50 ([1]; read-out: IC50, cytotoxicity against acute myelogenous leukemia cells) [nM]
– | 96 | Cc1nnc2c(NCCCCNC(=O)C(C)(C)C)nc3cc(Cl)c(Cl)cc3n12 [Example 28, N-[4-(7,8-dichloro-1-methyl-[1,2,4]triazolo[4,3-a]quinoxaline-4-ylamino)-butyl]-2,2-dimethyl-propionamide] | – | –
≤ 50 | 24 | Cc1noc(C)c1-c1ccc2nc(NCCCCNC(=O)[C@H](O)C(C)C)c3nnc(C)n3c2c1 [Example 581, N-{4-[8-(3,5-dimethyl-isoxazol-4-yl)-1-methyl-[1,2,4]triazolo[4,3-a]quinoxaline-4-ylamino]-butyl}-2-(R)-hydroxy-3-methyl-butyramide] | – | –
≤ 10 | 10 | Cc1noc(C)c1-c1ccc2nc(NCCCCNC(=O)[C@@H](O)C(C)C)c3nnc(C)n3c2c1 [Example 582, N-{4-[8-(3,5-dimethyl-isoxazol-4-yl)-1-methyl-[1,2,4]triazolo[4,3-a]quinoxaline-4-ylamino]-butyl}-2-(S)-hydroxy-3-methyl-butyramide] | – | –
≤ 10 | 5 | Cc1noc(C)c1-c1ccc2c(c1)nc(NCCCCNC(=O)OC(C)(C)C)c1nnc(C)n12 [Example 583, {4-[7-(3,5-dimethyl-isoxazol-4-yl)-1-methyl-[1,2,4]triazolo[4,3-a]quinoxaline-4-ylamino]-butyl}-carbamic acid-tert-butylester] | – | –
≤ 50 | 20 | COc1cc2nc(NCCCCNC(=O)C(C)(C)C)c3nnc(C)n3c2cc1C(F)(F)F [Example 477, N-[4-(7-methoxy-1-methyl-8-trifluoromethyl-[1,2,4]triazolo[4,3-a]quinoxaline-4-ylamino)-butyl]-2,2-dimethyl-propionamide] | – | –
≤ 50 | 25 | COCCOc1ccc2c(c1)nc(NCCCCNC(=O)NC(C)(C)C)c1nnc(C)n12 [Example 424, 1-tert-butyl-3-{4-[7-(2-methoxy-ethoxy)-1-methyl-[1,2,4]triazolo[4,3-a]quinoxaline-4-ylamino]-butyl}-urea] | – | –
≤ 50 | 27 | Cc1nnc2c(NCCCCNC(=O)c3cccc(Cl)c3)nc3ccccc3n12 [Example 15, 3-chloro-N-[4-(1-methyl-[1,2,4]triazolo[4,3-a]quinoxaline-4-ylamino)-butyl]-benzamide] | – | –
– | 78 | COCCOc1ccc2c(c1)nc(NCCCCNC(=O)COC(C)=O)c1nnc(C)n12 [Example 386, acetic acid-{4-[7-(2-methoxy-ethoxy)-1-methyl-[1,2,4]triazolo[4,3-a]quinoxaline-4-ylamino]-butylcarbamoyl}-methylester] | – | –
– | 54 | Cc1nnc2c(NCCCCNC(=O)CC(C)C)nc3cc(N4CCSCC4)ccc3n12 [Example 523, 3-methyl-N-[4-(1-methyl-7-thiomorpholine-4-yl-[1,2,4]triazolo[4,3-a]quinoxaline-4-ylamino)-butyl]-butyramide] | – | –
≤ 50 | 41 | COc1cc2nc(NCCCCNC(=O)N3CCOCC3)c3nnc(C)n3c2cc1OC [Example 92, morpholine-4-carboxylic acid-[4-(7,8-dimethoxy-1-methyl-[1,2,4]triazolo[4,3-a]quinoxaline-4-ylamino)-butyl]-amide] | – | –
≤ 50 | 31 | COc1ccc2nc(NCCCCNC(=O)[C@H](O)C(C)C)c3nnc(C)n3c2c1 [Example 125, 2-(R)-hydroxy-N-[4-(8-methoxy-1-methyl-[1,2,4]triazolo[4,3-a]quinoxaline-4-ylamino)-butyl]-3-methyl-butyramide] | – | –
